Measurements reported in PubChem BioAssay (NCI).
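Compound exposure: 48 hours, 5 concentrations, 96-well plates. TGI marks complete inhibition of growth.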

What was measured:
Experiment in all cases: growth of human tumour cells (NCI), 48 h
[1] = test system: RXF 393 renal
[2] = test system: NCI-H522 lung
[3] = test system: SF-539 CNS
[4] = test system: HT29 colon
[5] = test system: MOLT-4 leukemia
[6] = test system: BT-549 breast
[7] = test system: OVCAR-8 ovarian
[8] = test system: NCI/ADR-RES ovarian
[9] = test system: CAKI-1 renal
[10] = test system: U251 CNS
[11] = test system: UACC-257 melanoma
[12] = test system: SNB-75 CNS
[13] = test system: SW-620 colon
[14] = test system: HS 578T breast
[15] = test system: SK-MEL-28 melanoma
[16] = test system: PC-3 prostate
[17] = test system: MALME-3M melanoma
[18] = test system: SF-295 CNS
[19] = test system: MDA-MB-231 breast
[20] = test system: SK-MEL-5 melanoma
[21] = test system: COLO 205 colon
[22] = test system: TK-10 renal
[23] = test system: SF-268 CNS
[24] = test system: M14 melanoma
[25] = test system: LOX IMVI melanoma
[26] = test system: SK-MEL-2 melanoma
[27] = test system: EKVX NSCLC
[28] = test system: OVCAR-3 ovarian
[29] = test system: 786-0 renal
[30] = test system: ACHN renal
[31] = test system: SK-OV-3 ovarian
[32] = test system: A498 renal
[33] = test system: HL-60(TB) leukemia
[34] = test system: SN12C renal
[35] = test system: OVCAR-5 ovarian
[36] = test system: HCT-116 colon
[37] = test system: HCT-15 colon
[38] = test system: UO-31 renal
[39] = test system: SNB-19 CNS
[40] = test system: NCI-H460 lung
[41] = test system: KM12 colon
[42] = test system: HOP-92 NSCLC
[43] = test system: RPMI-8226 leukemia
[44] = test system: NCI-H226 lung
[45] = test system: K-562 leukemia
[46] = test system: NCI-H23 lung
[47] = test system: MDA-N
[48] = test system: A549 NSCLC
[49] = test system: UACC-62 melanoma
[50] = test system: DU-145 prostate
[51] = test system: CCRF-CEM leukemia
[52] = test system: HOP-62 NSCLC
[53] = test system: MDA-MB-435
[54] = test system: IGROV1 ovarian
[55] = test system: T-47D breast
[56] = test system: OVCAR-4 ovarian
[57] = test system: HCC-2998 colon
[58] = test system: MCF7 breast
[59] = test system: SR leukemia

COC(=O)CCCc1c(-c2[nH]c3ccccc3c2CCCC(=O)OC)[nH]c2ccccc12
TGI [1]: > 100 µM
TGI [2]: > 100 µM
TGI [3]: > 100 µM
TGI [4]: > 100 µM
TGI [5]: > 100 µM
TGI [6]: > 100 µM
TGI [7]: > 100 µM
TGI [8]: > 100 µM
TGI [9]: > 100 µM
TGI [10]: > 100 µM
TGI [11]: > 100 µM
TGI [12]: > 100 µM
TGI [13]: > 100 µM
TGI [14]: > 100 µM
TGI [15]: > 100 µM
TGI [16]: > 100 µM
TGI [17]: > 100 µM
TGI [18]: > 100 µM
TGI [19]: > 100 µM
TGI [20]: > 100 µM
TGI [21]: > 100 µM
TGI [22]: > 100 µM
TGI [23]: > 100 µM
TGI [24]: > 100 µM
TGI [25]: > 100 µM
TGI [26]: > 100 µM
TGI [27]: > 100 µM
TGI [28]: > 100 µM
TGI [29]: > 100 µM
TGI [30]: > 100 µM
TGI [31]: > 100 µM
TGI [32]: > 100 µM
TGI [33]: > 100 µM
TGI [34]: > 100 µM
TGI [35]: > 100 µM
TGI [36]: > 100 µM
TGI [37]: > 100 µM
TGI [38]: > 100 µM
TGI [39]: > 100 µM
TGI [40]: > 100 µM
TGI [41]: > 100 µM
TGI [42]: > 100 µM
TGI [43]: > 100 µM
TGI [44]: > 100 µM
TGI [45]: > 100 µM
TGI [46]: > 100 µM
TGI [47]: > 100 µM
TGI [48]: > 100 µM
TGI [49]: > 100 µM
TGI [50]: > 100 µM
TGI [51]: > 100 µM
TGI [52]: > 100 µM
TGI [53]: > 100 µM
TGI [54]: > 100 µM
TGI [55]: > 100 µM

CNc1nc(SC)nc2c1c(N)nn2C
TGI [1]: > 100 µM
TGI [2]: > 100 µM
TGI [4]: > 100 µM
TGI [56]: > 100 µM
TGI [5]: > 100 µM
TGI [6]: > 100 µM
TGI [7]: > 100 µM
TGI [8]: > 100 µM
TGI [9]: > 100 µM
TGI [10]: > 100 µM
TGI [11]: > 100 µM
TGI [12]: > 100 µM
TGI [13]: > 100 µM
TGI [14]: > 100 µM
TGI [15]: > 100 µM
TGI [16]: > 100 µM
TGI [17]: > 100 µM
TGI [18]: > 100 µM
TGI [19]: > 100 µM
TGI [20]: > 100 µM
TGI [21]: > 100 µM
TGI [22]: > 100 µM
TGI [23]: > 100 µM
TGI [24]: > 100 µM
TGI [25]: > 100 µM
TGI [26]: > 100 µM
TGI [28]: > 100 µM
TGI [29]: > 100 µM
TGI [30]: > 100 µM
TGI [31]: > 100 µM
TGI [32]: > 100 µM
TGI [34]: > 100 µM
TGI [35]: > 100 µM
TGI [36]: > 100 µM
TGI [37]: > 100 µM
TGI [38]: > 100 µM
TGI [39]: > 100 µM
TGI [40]: > 100 µM
TGI [41]: > 100 µM
TGI [42]: > 100 µM
TGI [43]: > 100 µM
TGI [44]: > 100 µM
TGI [45]: > 100 µM
TGI [46]: > 100 µM
TGI [47]: > 100 µM
TGI [48]: > 100 µM
TGI [49]: > 100 µM
TGI [50]: > 100 µM
TGI [57]: > 100 µM
TGI [51]: > 100 µM
TGI [52]: > 100 µM
TGI [53]: > 100 µM
TGI [54]: > 100 µM
TGI [55]: > 100 µM

CC(C)(C)OC(=O)N1CCCC1=O
TGI [1]: > 10 µM
TGI [3]: > 10 µM
TGI [4]: > 10 µM
TGI [5]: > 10 µM
TGI [6]: > 10 µM
TGI [7]: > 10 µM
TGI [10]: > 10 µM
TGI [11]: > 10 µM
TGI [12]: > 10 µM
TGI [13]: > 10 µM
TGI [14]: > 10 µM
TGI [15]: > 10 µM
TGI [16]: > 10 µM
TGI [17]: > 10 µM
TGI [18]: > 10 µM
TGI [19]: > 10 µM
TGI [20]: > 10 µM
TGI [22]: > 10 µM
TGI [23]: > 10 µM
TGI [24]: > 10 µM
TGI [25]: > 10 µM
TGI [26]: > 10 µM
TGI [27]: > 10 µM
TGI [28]: > 10 µM
TGI [29]: > 10 µM
TGI [30]: > 10 µM
TGI [31]: > 10 µM
TGI [32]: > 10 µM
TGI [33]: > 10 µM
TGI [34]: > 10 µM
TGI [35]: > 10 µM
TGI [36]: > 10 µM
TGI [37]: > 10 µM
TGI [58]: > 10 µM
TGI [38]: > 10 µM
TGI [39]: > 10 µM
TGI [40]: > 10 µM
TGI [41]: > 10 µM
TGI [42]: > 10 µM
TGI [43]: > 10 µM
TGI [44]: > 10 µM
TGI [45]: > 10 µM
TGI [46]: > 10 µM
TGI [47]: > 10 µM
TGI [59]: > 10 µM
TGI [48]: > 10 µM
TGI [49]: > 10 µM
TGI [50]: > 10 µM
TGI [57]: > 10 µM
TGI [51]: > 10 µM
TGI [52]: > 10 µM
TGI [53]: > 10 µM
TGI [54]: > 10 µM
TGI [55]: > 10 µM

NNC1=N/C(=C\c2ccccc2O)C(=O)N1
TGI [1]: > 100 µM
TGI [2]: > 100 µM
TGI [3]: > 100 µM
TGI [4]: > 100 µM
TGI [5]: > 100 µM
TGI [6]: > 100 µM
TGI [7]: > 100 µM
TGI [8]: > 100 µM
TGI [9]: > 100 µM
TGI [10]: > 100 µM
TGI [11]: > 100 µM
TGI [12]: > 100 µM
TGI [13]: > 100 µM
TGI [14]: > 100 µM
TGI [15]: > 100 µM
TGI [16]: > 100 µM
TGI [17]: > 100 µM
TGI [18]: > 100 µM
TGI [19]: > 100 µM
TGI [20]: > 100 µM
TGI [21]: 77.3 µM
TGI [22]: > 100 µM
TGI [23]: > 100 µM
TGI [24]: > 100 µM
TGI [25]: > 100 µM
TGI [26]: > 100 µM
TGI [27]: > 100 µM
TGI [28]: > 100 µM
TGI [29]: > 100 µM
TGI [30]: > 100 µM
TGI [31]: > 100 µM
TGI [32]: > 100 µM
TGI [33]: 49.6 µM
TGI [34]: > 100 µM
TGI [35]: > 100 µM
TGI [36]: > 100 µM
TGI [37]: > 100 µM
TGI [38]: > 100 µM
TGI [39]: > 100 µM
TGI [40]: > 100 µM
TGI [41]: > 100 µM
TGI [42]: > 100 µM
TGI [43]: > 100 µM
TGI [44]: > 100 µM
TGI [45]: > 100 µM
TGI [46]: > 100 µM
TGI [47]: > 100 µM
TGI [48]: > 100 µM
TGI [49]: > 100 µM
TGI [50]: > 100 µM
TGI [51]: 51.9 µM
TGI [52]: > 100 µM
TGI [53]: > 100 µM
TGI [54]: > 100 µM
TGI [55]: 89.4 µM

CN(C(=O)c1ccccc1)C1CCCC(=O)CC1 (centres undefined)
TGI [1]: > 100 µM
TGI [2]: > 100 µM
TGI [3]: > 100 µM
TGI [4]: > 100 µM
TGI [56]: > 100 µM
TGI [6]: > 100 µM
TGI [7]: > 100 µM
TGI [9]: > 100 µM
TGI [10]: > 100 µM
TGI [11]: > 100 µM
TGI [12]: > 100 µM
TGI [13]: > 100 µM
TGI [14]: > 100 µM
TGI [15]: > 100 µM
TGI [16]: > 100 µM
TGI [17]: > 100 µM
TGI [18]: > 100 µM
TGI [19]: > 100 µM
TGI [21]: > 100 µM
TGI [22]: > 100 µM
TGI [23]: > 100 µM
TGI [24]: > 100 µM
TGI [25]: > 100 µM
TGI [26]: > 100 µM
TGI [27]: > 100 µM
TGI [28]: > 100 µM
TGI [29]: > 100 µM
TGI [30]: > 100 µM
TGI [31]: > 100 µM
TGI [32]: > 100 µM
TGI [33]: > 100 µM
TGI [34]: > 100 µM
TGI [35]: > 100 µM
TGI [36]: > 100 µM
TGI [37]: > 100 µM
TGI [58]: > 100 µM
TGI [38]: > 100 µM
TGI [39]: > 100 µM
TGI [40]: > 100 µM
TGI [41]: > 100 µM
TGI [42]: > 100 µM
TGI [43]: > 100 µM
TGI [44]: > 100 µM
TGI [45]: > 100 µM
TGI [46]: > 100 µM
TGI [47]: > 100 µM
TGI [59]: > 100 µM
TGI [48]: > 100 µM
TGI [49]: > 100 µM
TGI [50]: > 100 µM
TGI [57]: > 100 µM
TGI [51]: > 100 µM
TGI [52]: > 100 µM
TGI [53]: > 100 µM
TGI [54]: > 100 µM
TGI [55]: > 100 µM
